{
  "source": "patent US10226435B2",
  "about": "“Compositions and methods for restoring the stratum corneum and treating dermatological diseases” (New York University, priority 2011, dated 2019)",
  "key": {"[1]": {"tested_on": "inflammation-relevant gene expression", "settings": "rat skin, x-rays; cited from earlier work"}, "breast cancer": {"tested_on": "breast cancer", "settings": "rats, ionizing radiation or DMBA; cited from earlier work"}, "colon cancer": {"tested_on": "colon cancer", "settings": "rats, 1,2-dimethylhydrazine induced, 8 mg/kg, p<0.01; cited from earlier work"}, "[2]": {"tested_on": "mouse skin gene expression", "assay": "Gene expression microarray analysis of mouse skin", "format": "in vivo", "settings": "for loricrin and filaggrin and vascular endothelial growth factor (VEGF) genes / matrix metalloproteinases: ingestion, animal models; for inflammation genes induced by UVR: per os daily for 4 days in 30 microL droplets prior to irradiation", "method": "Animals for the histology and microarray analysis were euthanized 24 hours after 4 days of terpene pre-feed and the UVR exposure.\nGene expression microarray analysis was performed as follows: RNA was extracted from a 0.1 g sample of mouse skin and an equal quantity of keratinocytes by using the TRIZOL reagent (Invitrogen, Carlsbad, Calif., USA) according to the manufacture's instructions and 200 μg of total RNA was used for the isolation of poly A+mRNA by using Oligotex mRNA mini columns (QIAGEN, Valencia, Calif., USA). The final centrifugation was performed after the incubation with 1/10 volume of 3.0 M NaOAc, 2.5 volumes of ethanol and 1 μl glycogen (Boehringer Mannheim GmbH, Mannheim, Germany) at −20° C. overnight. Then the pellet was resuspended in diethylpyrocarbonate (DEPC)-treated water. RNA was labeled with biotin and hybridized to a Mouse genome 430_2 GeneChip® microarray (Affymetrix, Inc. Santa Clara, Calif., USA). Data from the Affymetrix mouse expression array chip were imported into the BRB-ArrayTools Version 3.3.0 developed by the Biometric Research Branch of the U.S. National Cancer Institute for normalization and analysis. […] A value of P≤0.001 was chosen as statistically significant. […] For these calculations the entire list of genes on the Affymetrix (mouse 430_2) microarray was used as the reference list.\nMice were treated with either UVR or UVR+beta-damascenone, and samples of tissue were removed from the dorsal skin for RNA extraction and analysis on an Affymetrix Microarray System utilizing mouse whole genome array chips Affy 430_2. The UVR sample served as the control in this preliminary experiment."}, "[3]": {"tested_on": "skin of SKH1 hairless mice", "assay": "Sunburn (erythema) prevention by terpenes in UVR-exposed hairless mice", "settings": "4 daily 30 microL droplets per os before 15 minute exposure to 3.0 kJ/m2 UVR", "experimental": "All experiments were performed with female hairless mice (SKH1) utilizing solar spectrum ultraviolet radiation (UVR). Each experiment was performed in triplicate including controls and UVR-exposed mice and included a total of 22 mice per experiment for a total of 66 mice. The protocol included untreated mice, UVR-irradiated mice as controls for the terpene treatments, UVR+terpene mice and terpene-only mice.\nFour solar simulating FS-20 fluorescent lamps were used to deliver 3 kJ/m^2 measured by a calibrated International Light UV radiometer at the lamp distance between 20 to 24 cm. The UVR dose was selected to be just above the minimal erythemal dose for producing a ‘sunburn’ reaction in mouse skin (this is very similar to the minimal erythemal dose of fair-skinned humans).\nEach terpene was given to each mouse per os (by mouth) in 15-30 μL droplets (˜15-30 μg) via micropipette once each day for 4 consecutive days prior to and/or subsequent to UVR exposure. Animals were observed and photographed every 24 hours for a period of 6-7 days after the irradiation. Each terpene was administered in pure form.\nThe UVR exposure of 3 kJ/m^2 was delivered seven (7) days after the last dose was administered. The animals were observed and photographed. […] Liponeate, a triglyceride fraction of coconut oil was used as a diluent. Concentration 1, 10 and 100% were tested. […]"}, "skin inflammation": {"tested_on": "skin inflammation", "settings": "topical preventive treatment 3 days at 10 mg/kg/day before induction; cited from earlier work"}, "skin [4]": {"tested_on": "skin", "settings": "in vivo; cited from earlier work"}, "skin [5]": {"tested_on": "skin", "settings": "in vivo; cited from earlier work", "remark": "listed apart in the source"}, "[6]": {"tested_on": "stratum corneum of Skh1 mouse skin", "assay": "Thickness of nucleated keratinocyte portion of epidermis versus stratum corneum, H&E histology", "format": "in vivo", "source_text": "1. Skin and epidermal thickness (as measured by histology);"}, "[7]": {"tested_on": "dorsal skin of hairless mice", "assay": "β-damascenone-induced sunburn protection study in hairless mice", "format": "in vivo, mouse", "settings": "read 5 days later", "source_text": "The present experiment will be performed for evaluating the effectiveness and persistence of sunburn protection afforded by different doses and exposure regimens of a test terpene, β-damascenone. Female SKH-1 strain mice, obtained from Charles River Breeding Labs, Wilmington, Mass., will be fed per os various amounts of the terpene as indicated in the following Tables 4 and 5."}, "[8]": {"settings": "in vivo; cited from earlier work"}, "[9]": {"tested_on": "human transplanted pancreatic adenocarcinomas", "settings": "growth of human transplanted pancreatic adenocarcinomas; cited from earlier work"}, "[10]": {"settings": "UVR+beta-damascenone relative to UVR only"}, "[11]": {"settings": "Group 2, 20 μL ×1 oral, section 1 d after final administration, total 20 μL"}, "[12]": {"settings": "Group 3, 10 μL ×4 oral, section 1 d after final administration, total 40 μL"}, "[13]": {"settings": "Group 4, 20 μL ×4 oral, section 1 d after final administration, total 80 μL"}, "[14]": {"settings": "Group 5, 80 μL ×1 oral, section 1 d after final administration, total 80 μL"}, "[15]": {"settings": "Group 6, 20 μL ×1 oral, section 5 d after final administration, total 20 μL"}, "[16]": {"settings": "Group 7, 10 μL ×4 oral, section 5 d after final administration, total 40 μL"}, "[17]": {"settings": "Group 8, 80 μL ×1 oral, section 5 d after final administration, total 80 μL"}, "[18]": {"settings": "Group 9, 20 μL ×4 oral, section 5 d after final administration, total 80 μL"}, "[19]": {"settings": "Group 10, 10 μL ×4 oral, section 12 d after final administration, total 40 μL"}, "[20]": {"settings": "Group 11, 20 μL ×4 oral, section 12 d after final administration, total 80 μL"}, "[21]": {"settings": "day 5 after the exposures were completed"}, "[22]": {"settings": "Group 2, 20 uL × 4 by feeding tube, UVR 1.5 kJ/m^2 5 days after final dose"}, "[23]": {"settings": "Group 3, 10 uL × 4 by feeding tube, UVR 1.5 kJ/m^2 5 days after final dose"}, "[24]": {"settings": "Group 4 (replication of group 2), 20 uL × 4 by feeding tube, UVR 1.5 kJ/m^2 5 days after final dose"}, "[25]": {"settings": "Group 5, 10 uL × 1 by feeding tube, UVR 1.5 kJ/m^2 5 days after dose"}, "[26]": {"settings": "Group 6, 20 uL × 1 by feeding tube, UVR 1.5 kJ/m^2 5 days after dose"}, "[27]": {"settings": "Group 7, 40 uL × 1 by feeding tube, UVR 1.5 kJ/m^2 5 days after dose"}, "[28]": {"settings": "Groups 2 + 4 combined, 20 uL × 4, UVR 1.5 kJ/m^2 5 days after final dose"}},
  "data": [
    {"compound": "vitamin A", "values": [
      {"measurement": "inflammation-relevant gene expression alterations blocked", "setting": "[1]", "value": "about 80%"}
    ]},
    {"compound": "C=C(C)[C@H]1CC=C(C)CC1", "note": "[d-limonene]", "values": [
      {"measurement": "initiation of breast cancer", "setting": "breast cancer", "value": "almost completely prevented"}
    ]},
    {"compound": "Oc1ccc(C=Cc2cc(O)cc(O)c2)cc1", "note": "[resveratrol]", "values": [
      {"measurement": "inhibition of colon cancer", "setting": "colon cancer", "value": 67, "unit": "%"}
    ]},
    {"compound": "C=C(C)[C@@H]1CCC2=CC(=O)C[C@@H](C)[C@]2(C)C1", "note": "[nootkatone]", "values": [
      {"measurement": "loricrin and filaggrin and vascular endothelial growth factor (VEGF) genes", "setting": "[2]", "value": "upregulation"},
      {"measurement": "matrix metalloproteinases", "setting": "[2]", "value": "downregulation"},
      {"measurement": "inflammation genes induced by UVR", "setting": "[2]", "value": "blocked"},
      {"measurement": "cutaneous inflammation and erythema after UVR", "setting": "[3]", "value": "blocked"}
    ]},
    {"compound": "C=C(C)[C@@H]1CC=C(CO)CC1", "note": "[perillyl alcohol, reference compound]", "values": [
      {"measurement": "effect on skin inflammation", "setting": "skin inflammation", "value": "significant effect"},
      {"measurement": "initiation of breast cancer", "setting": "breast cancer", "value": "almost completely prevented"}
    ]},
    {"compound": "C/C=C/C(=O)C1=C(C)C=CCC1(C)C", "note": "[beta-damascenone]", "values": [
      {"measurement": "inflammation-relevant genes", "setting": "[2]; [10]", "value": "strongly down-regulated"},
      {"measurement": "number of gene categories significantly (p<0.05) down-regulated", "setting": "[2]; [10]", "value": 13},
      {"measurement": "only significantly (p<0.05) altered up-regulated category at level 4 of Gene Ontology Tree", "setting": "[2]; [10]", "value": "epidermal cell differentiation"},
      {"measurement": "loricrin and filaggrin and vascular endothelial growth factor (VEGF) genes", "setting": "[2]", "value": "upregulation"},
      {"measurement": "matrix metalloproteinases", "setting": "[2]", "value": "downregulation"},
      {"measurement": "inflammation genes induced by UVR", "setting": "[2]", "value": "blocked"},
      {"measurement": "skin irritation", "setting": "skin [4]", "value": "No skin irritation"},
      {"measurement": "phototoxicity or photoallergenity", "setting": "skin [5]", "value": "No phototoxicity or photoallergenity"},
      {"measurement": "Living Epidermis Thickness", "setting": "[6]; Average (Groups 2-11)", "value": 34.6, "unit": "arbitrary units"},
      {"measurement": "Stratum Corneum Thickness", "setting": "[6]; Average (Groups 2-11)", "value": 21.0, "unit": "arbitrary units"},
      {"measurement": "Living Epidermis Thickness", "setting": "[6]; [11]", "value": 35.0, "unit": "arbitrary units"},
      {"measurement": "Stratum Corneum Thickness", "setting": "[6]; [11]", "value": 20.0, "unit": "arbitrary units"},
      {"measurement": "Living Epidermis Thickness", "setting": "[6]; [12]", "value": 37.0, "unit": "arbitrary units"},
      {"measurement": "Stratum Corneum Thickness", "setting": "[6]; [12]", "value": 15.3, "unit": "arbitrary units"},
      {"measurement": "Living Epidermis Thickness", "setting": "[6]; [13]", "value": 36.0, "unit": "arbitrary units"},
      {"measurement": "Stratum Corneum Thickness", "setting": "[6]; [13]", "value": 17.8, "unit": "arbitrary units"},
      {"measurement": "Living Epidermis Thickness", "setting": "[6]; [14]", "value": 36.0, "unit": "arbitrary units"},
      {"measurement": "Stratum Corneum Thickness", "setting": "[6]; [14]", "value": 16.3, "unit": "arbitrary units"},
      {"measurement": "Living Epidermis Thickness", "setting": "[6]; [15]", "value": 38.5, "unit": "arbitrary units"},
      {"measurement": "Stratum Corneum Thickness", "setting": "[6]; [15]", "value": 37.0, "unit": "arbitrary units"},
      {"measurement": "Living Epidermis Thickness", "setting": "[6]; [16]", "value": 40.2, "unit": "arbitrary units"},
      {"measurement": "Stratum Corneum Thickness", "setting": "[6]; [16]", "value": 20.2, "unit": "arbitrary units"},
      {"measurement": "Living Epidermis Thickness", "setting": "[6]; [17]", "value": 36.2, "unit": "arbitrary units"},
      {"measurement": "Stratum Corneum Thickness", "setting": "[6]; [17]", "value": 25.5, "unit": "arbitrary units"},
      {"measurement": "Living Epidermis Thickness", "setting": "[6]; [18]", "value": 32.5, "unit": "arbitrary units"},
      {"measurement": "Stratum Corneum Thickness", "setting": "[6]; [18]", "value": 21.2, "unit": "arbitrary units"},
      {"measurement": "Living Epidermis Thickness", "setting": "[6]; [19]", "value": 30.7, "unit": "arbitrary units"},
      {"measurement": "Stratum Corneum Thickness", "setting": "[6]; [19]", "value": 18.7, "unit": "arbitrary units"},
      {"measurement": "Living Epidermis Thickness", "setting": "[6]; [20]", "value": 23.3, "unit": "arbitrary units"},
      {"measurement": "Stratum Corneum Thickness", "setting": "[6]; [20]", "value": 21.7, "unit": "arbitrary units"},
      {"measurement": "nucleated keratinocytes in the epidermis", "setting": "[6]; [21]", "value": "no corresponding increase"},
      {"measurement": "thickness of the stratum corneum", "setting": "[6]; [21]", "value": "highly significant increases"},
      {"measurement": "stratum corneum thickness (FIG. 4)", "setting": "[6]; mouse, in vivo", "value": "consistently thickened"},
      {"measurement": "Areas with no sunburn", "setting": "[7]; [22]", "value": 11.0},
      {"measurement": "Areas with sunburn", "setting": "[7]; [22]", "value": 1.0},
      {"measurement": "Areas with no sunburn", "setting": "[7]; [23]", "value": 6.0},
      {"measurement": "Areas with sunburn", "setting": "[7]; [23]", "value": 2.0},
      {"measurement": "Areas with no sunburn", "setting": "[7]; [24]", "value": 8.0},
      {"measurement": "Areas with sunburn", "setting": "[7]; [24]", "value": 0.0},
      {"measurement": "Areas with no sunburn", "setting": "[7]; [25]", "value": 7.0},
      {"measurement": "Areas with sunburn", "setting": "[7]; [25]", "value": 5.0},
      {"measurement": "Areas with no sunburn", "setting": "[7]; [26]", "value": 10.0},
      {"measurement": "Areas with sunburn", "setting": "[7]; [26]", "value": 2.0},
      {"measurement": "Areas with no sunburn", "setting": "[7]; [27]", "value": 3.0},
      {"measurement": "Areas with sunburn", "setting": "[7]; [27]", "value": 1.0},
      {"measurement": "Areas with no sunburn", "setting": "[7]; [28]", "value": 19.0},
      {"measurement": "Areas with sunburn", "setting": "[7]; [28]", "value": 1.0},
      {"measurement": "cutaneous inflammation and erythema after UVR", "setting": "[3]", "value": "blocked"},
      {"measurement": "LD50", "setting": "[8]", "value": "greater than 2.0 g/kg"}
    ]},
    {"compound": "CC(C)=CCC/C(C)=C/CO", "note": "[Geraniol]", "values": [
      {"measurement": "effectiveness relative to perillyl alcohol", "setting": "[9]", "value": "about 5 fold"}
    ]}
  ]
}
